Test results as given in patent US20170216252A1, “ANTI-BACTERIAL PYRUVATE KINASE MODULATOR COMPOUNDS, COMPOSITIONS, USES AND METHODS” (SIMON FRASER UNIVERSITY, priority 2014, published 2017).
Converted amounts (≈) assume the structure as drawn. Read-outs that look alike come from different tables or passages of the source.

How the values were obtained:
[1] = test system: A. baumannii (ATCC 19606); test: Broth microdilution MIC; format: cell-based; settings: Acinetobacter baumannii
Experimental: (§1) The antimicrobial activities of PK inhibitor candidates were determined using the 96-well microtiter standard 2-fold serial broth microdilution method as described by CLSI (formerly NCCLS) with the various gram-positive and gram-negative bacteria species mentioned above. Bacteria from a single colony were grown, overnight in either BHI Broth (VRE), mueller hinton broth (S. aureus 29213; MRSA USA400) or L-broth (E. coli, P. aeruginosa, S. typhimuriu, K. Pneumonia and A. baumannii). […] Culture plates were incubated for 18-24 h at 37° C., and optical density at 600 nm (OD600) was measured using a Benchmark Plus™ microplate spectrophotometer (Bio-Rad™). The absorbance control values for the series containing CAMHB and inhibitor were subtracted as background from the corresponding infected wells. The MIC was defined as the lowest concentration of test compound leading to complete inhibition of cell growth in relationship to compound-free control wells as determined by optical density. […] All assays were run in triplicate (Tables 1-6) or duplicate. Experiments were replicated at least twice to verify reproducibility using the above conditions.
(§2) The antimicrobial activity of selected compounds against the gram negative bacteria Klebsiella pneumoniae, Acinetobacter baumannii, E. coli, Pseudomonas aeruginosa and Salmonella typhimurium, as well as additional gram positive bacteria, including drug-resistant strains, was tested according to the procedures provided under “General Methodologies” above.

K. pneumoniae (C238) = test: Broth microdilution MIC; format: cell-based; settings: Klebsiella pneumoniae, read-out: MIC (μg/mL) A
Experimental: as §1, §2

MRSA MW2 (USA400) = test: Broth microdilution MIC; format: cell-based; settings: Staphylococcus aureus, read-out: MIC (μg/mL) G
Experimental: as §1, §2

S. aureus ATCC 29123 = test: Neutropenic mouse Staphylococcus aureus thigh infection model; format: in vivo; settings: vancomycin control, 10 mg/kg IP at 2 and 8 h, 24 h endpoint
Experimental: The antimicrobial activity of compound 178 against S. aureus ATCC 29123 was tested in vivo using the neutropenic mouse Staphylococcus aureus thigh infection model. […] Animals were individually monitored for adverse reactions for 30 min post-infection. […] Vancomycin was administered as a solution in PBS. The test compounds were administered as outlined in Table 12 at 2 and 8 hours post-infection and animals were individually monitored for adverse reactions for 30 min after each injection. All animals were then monitored hourly from 20 hours post infection to the endpoint (t=24 hr post infection). At the indicated timepoint, animals were sacrificed and the injected thigh collected. Quantitative enumeration of bacterial load was determined by plating serial dilutions from homogenized thigh muscles. Homogenized muscle was in a total of 2 mL volume, from which a 1 in 10 dilution was prepared (100 μL into 900 μL saline). From this a series of dilutions were prepared and plated on Mueller Hinton agar plates. […] At the end of this time colony counts were determined and the final CFU per mL calculated.

VRE#2 (2010A) = test: Broth microdilution MIC; format: cell-based, vancomycin-resistant Enterococcus; settings: Enterococcus, read-out: MIC (μg/mL) F
Experimental: as §1, §2

S. aureus ATCC 29213 = test: In vitro susceptibility, broth microdilution MIC; format: cell-based, Staphylococcus aureus
In short: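 The MIC against S. aureus 29213 was determined by CLSI 2-fold serial broth microdilution in Mueller Hinton broth. Plates were incubated for 18–24 h at 37 °C and read at OD600 with background subtracted. The MIC was the lowest concentration giving complete growth inhibition versus compound-free wells.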

S. pyogenes (ATCC700294) = test: Broth microdilution MIC; format: cell-based; settings: Streptococcus pyogenes
Experimental: as §1, §2

E. coli (DAS 1-IMP) = test: microbe, parasite or virus in culture; format: cell-based, Escherichia coli; settings: for MIC: Escherichia coli, read-out: MIC (μg/mL) C, E. coli (DAS 1-IMP)
Experimental: as §1, §2

P. aeruginosa (PA01) = test: Broth microdilution MIC; format: cell-based; settings: Pseudomonas aeruginosa
Experimental: as §1, §2

S. typhimurium (SL 1344) = test: Broth microdilution MIC; format: cell-based; settings: Salmonella enterica
Experimental: as §1, §2

MRSA PK = target: T1, MRSA PK (Staphylococcus aureus, UniProt Q6GG09); test: MRSA PK activity, continuous LDH-coupled assay; format: biochemical, S. aureus (MRSA strain Sanger 252)
T1 construct: His tag (pET-28a(+) vector) (N); made in house; host or cells: E. coli BL-21 (DE3)
In short: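 Purified His-tagged MRSA PK (15 nM, E. coli-expressed) started reactions run up to 5 min at 30 °C. Activity was followed continuously by LDH-coupled NADH oxidation at 340 nm, with DMSO ≤1%. IC50 came from four-parameter variable-slope fits.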

[2] = ATCC19606, A. baumannii (ATCC 19606), read-out: MIC (μg/mL) B
[3] = Staphylococcus aureus, ATCC29213, S. aureus (ATCC29213), Table 9, read-out: MIC (μg/mL) H
[4] = Staphylococcus aureus, ATCC29213, Table 8, tested at least in duplicate, differing values all given, read-out: MIC
[5] = Table 8, tested at least in duplicate, differing values all given

T1 sequence (Q6GG09 whole entry): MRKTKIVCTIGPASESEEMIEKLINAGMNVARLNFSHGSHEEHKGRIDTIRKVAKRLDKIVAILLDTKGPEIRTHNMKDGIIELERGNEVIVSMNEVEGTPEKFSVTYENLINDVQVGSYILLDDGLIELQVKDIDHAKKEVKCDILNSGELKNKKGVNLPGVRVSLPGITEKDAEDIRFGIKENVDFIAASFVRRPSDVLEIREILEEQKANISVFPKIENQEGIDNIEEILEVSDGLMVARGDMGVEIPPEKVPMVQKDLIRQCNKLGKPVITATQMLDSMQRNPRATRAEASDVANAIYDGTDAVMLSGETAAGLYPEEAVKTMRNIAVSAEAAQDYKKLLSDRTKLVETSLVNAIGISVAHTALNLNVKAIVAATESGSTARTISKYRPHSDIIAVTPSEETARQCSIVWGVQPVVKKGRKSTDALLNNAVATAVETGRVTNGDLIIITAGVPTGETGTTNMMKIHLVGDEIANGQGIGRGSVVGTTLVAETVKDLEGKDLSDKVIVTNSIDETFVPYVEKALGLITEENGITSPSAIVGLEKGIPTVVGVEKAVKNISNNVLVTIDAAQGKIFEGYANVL

| Compound | MIC ([1]; ATCC19606, read-out: MIC (μg/mL) B) | MIC (K. pneumoniae (C238)) | MIC (MRSA MW2 (USA400)) | median CFU/thigh (S. aureus ATCC 29123) | MIC (VRE#2 (2010A); VRE) | MIC (S. aureus ATCC 29213; Staphylococcus aureus, ATCC29213) | MIC (S. aureus ATCC 29213; Staphylococcus aureus, ATCC29213, read-out: MIC (μg/mL) H) | MIC [1, 2] | MIC (S. pyogenes (ATCC700294)) | MIC (K. pneumoniae (C238); K. pneumoniae (C238)) | MIC (MRSA MW2 (USA400); MRSA MW2 (USA400)) | MIC (VRE#2 (2010A); VRE#2 (2010A)) | MIC (S. aureus ATCC 29213; [3]) | MIC (E. coli (DAS 1-IMP)) | MIC (P. aeruginosa (PA01)) | MIC (S. typhimurium (SL 1344)) | IC50 (MRSA PK) | MIC (S. aureus ATCC 29213; [4]) | MIC (S. aureus ATCC 29213; [5]) | MIC (μg/mL) C (E. coli (DAS 1-IMP); E. coli (DAS 1-IMP)) |
| --- | --- | --- | --- | --- | --- | --- | --- | --- | --- | --- | --- | --- | --- | --- | --- | --- | --- | --- | --- | --- |
| CN[C@H](CC(C)C)C(=O)N[C@H]1C(=O)N[C@@H](CC(N)=O)C(=O)N[C@H]2C(=O)N[C@H]3C(=O)N[C@H](C(=O)N[C@H](C(=O)O)c4cc(O)cc(O)c4-c4cc3ccc4O)[C@H](O)c3ccc(c(Cl)c3)Oc3cc2cc(c3O[C@@H]2O[C@H](CO)[C@@H](O)[C@H](O)[C@H]2O[C@H]2C[C@](C)(N)[C@H](O)[C@H](C)O2)Oc2ccc(cc2Cl)[C@H]1O [Vancomycin, reference compound] | 64 µg/mL (≈ 44.2 µM) | 4 µg/mL (≈ 2.76 µM) | 1 µg/mL (≈ 0.69 µM) | 1.91×10^3 CFU/thigh | 64 µg/mL (≈ 44.2 µM) | 1 µg/mL (≈ 0.69 µM) | 1 µg/mL (≈ 0.69 µM) | – | – | – | – | – | – | – | – | – | – | – | – | – |
| COc1cccc(OC)c1C(=O)N[C@@H]1C(=O)N2[C@@H]1SC(C)(C)[C@@H]2C(=O)O [Methicillin, methicillin, reference compound] | – | – | – | – | – | – | – | > 64 µg/mL | 1 µg/mL (≈ 2.63 µM) | 4 µg/mL (≈ 10.5 µM) | 32 µg/mL (≈ 84.1 µM) | 64 µg/mL (≈ 168 µM) | 2 µg/mL (≈ 5.26 µM) | – | – | – | – | – | – | – |
| O=C(O)c1c(/C=C/c2ccc(Cl)cc2)[nH]c2cc(Br)ccc12 [Compound 123, (E)-6-Bromo-2-(4-chlorostyryl)-1H-indole-3-carboxylic acid] | – | – | – | – | – | – | – | 64 µg/mL (≈ 170 µM) | – | 32 µg/mL (≈ 85 µM) | 32 µg/mL (≈ 85 µM) | 32 µg/mL (≈ 85 µM) | 16 µg/mL (≈ 42.5 µM) | 64 µg/mL (≈ 170 µM) | > 64 µg/mL | > 64 µg/mL | 100 to 1000 nM | – | – | – |
| O=C(c1c(/C=C/c2ccc(Cl)cc2)[nH]c2cc(Br)ccc12)C(F)(F)F [Compound 168, (E)-1-(6-Bromo-2-(4-chlorostyryl)-1H-indol-3-yl)-2,2,2-trifluoroethanone] | – | – | – | – | – | – | – | – | – | – | 0.5 µg/mL (≈ 1.17 µM) | 1 µg/mL (≈ 2.33 µM) | 2 µg/mL (≈ 4.67 µM) | – | – | – | 100 to 1000 nM | 1 µg/mL (≈ 2.33 µM) | 2 µg/mL (≈ 4.67 µM) | – |
| O=C(c1c(CCc2ccc(Cl)cc2)[nH]c2cc(Br)ccc12)C(F)(F)F [Compound 167, 1-(6-Bromo-2-(4-chlorophenethyl)-1H-indol-3-yl)-2,2,2-trifluoroethanone] | – | – | – | – | – | – | – | > 64 µg/mL | 2 µg/mL (≈ 4.64 µM) | 1 µg/mL (≈ 2.32 µM) | – | 1 µg/mL (≈ 2.32 µM) | 1.5 µg/mL (≈ 3.48 µM) | 4 µg/mL (≈ 9.29 µM) | > 64 µg/mL | > 64 µg/mL | 100 to 1000 nM | 2 µg/mL (≈ 4.64 µM) | 1 µg/mL (≈ 2.32 µM) | 8 µg/mL (≈ 18.6 µM) |
| COC(=O)c1c(/C=C/c2ccc(Cl)cc2)[nH]c2cc(Br)ccc12 [Compound 124, (E)-methyl 6-bromo-2-(4-chlorostyryl)-1H-indole-3-carboxylate] | – | – | – | – | – | – | – | > 64 µg/mL | – | 2 µg/mL (≈ 5.12 µM) | 2 µg/mL (≈ 5.12 µM) | 8 µg/mL (≈ 20.5 µM) | 2 µg/mL (≈ 5.12 µM) | > 64 µg/mL | > 64 µg/mL | > 64 µg/mL | < 50 nM | 4 µg/mL (≈ 10.2 µM) | 2 µg/mL (≈ 5.12 µM) | – |
